Columns and labels:
UptA R118A/R119A = test: Native MS of C55-P binding to UptA double mutant R118A/R119A; set-up: species or system Bacillus subtilis; settings: 5 µM protein, 10 µM C55-P, pH 8.02, 0.05% LDAO, 200 mM ammonium acetate, 100 V; mean of three biological replicates
UptA = UptA (Bacillus subtilis, UniProt O31823); test: Native MS of phospholipid binding to UptA; settings: 4 µM UptA with 10 µM lipid (stated for a15:0-i15:0 lipids); mean of three independent replicates
Excerpt: Proteins belonging to the DedA family are a widespread family of transporters and are proposed to flip diverse lipids, including carrier lipids and membrane phospholipids. We therefore probed the interaction of UptA with membrane phospholipids to understand whether the latter could modulate its function. For this purpose, we selected anionic phosphatidylglycerols (PG) and zwitterionic phosphatidylethanolamines (PE), representing the major classes of phospholipid headgroups found in B. subtilis ([41], [42]). We recorded mass spectra of solutions containing 4 µM UptA incubated with 10 µM a15:0-i15:0 PE and 10 µM a15:0-i15:0 PG (a15:0, anteiso-pentadecanoic acid; i15:0, iso-pentadecanoic acid). The fatty acid composition of these lipids closely mimics those of native B. subtilis lipids (see below). The resulting spectra display peaks corresponding to UptA in apo and lipid-bound forms in both cases (Fig. 4 A and B). […] We therefore hypothesize that UptA interacts more favorably with PG than with PE.
To verify the lipid binding preference of UptA with more native-like lipids, we prepared lipid extracts from B. subtilis membranes (Materials and Methods). We then incubate an aliquot of the resulting crude lipids (SI Appendix, Fig. S8) with UptA. The spectra yielded peaks assigned to UptA in complex with cardiolipins (~1,326 Da) and a range of phospholipids, predominantly 694 Da, 721 Da, 748 Da, and 776 Da species (Fig. 4 D and E). To identify these lipids, we performed tandem MS/MS, isolating the lipid species and subjecting it to collisional activation. […] The fatty acid fragments are mixed populations, predominantly 15:0-15:0, 15:0-17:0, 16:0-16:0, and 16:0-18:1 (SI Appendix, Fig. S9) which are the typical fatty acids from B. subtilis membrane phospholipids ([42]). We therefore conclude that UptA interacts more favorably with the anionic cardiolipins and phosphatidylglycerols than with the zwitterionic phosphatidylethanolamines in the membrane lipid extracts.
Detailed experimental procedures are provided in SI Appendix. Briefly, UptA (wild type and mutants) was expressed in E. coli C43(DE3) cells (Lucigen) with GFP fusion on the C-terminus and solubilized from the membrane fraction by n-dodecyl-β-D-maltopyranoside (DDM). After purification by affinity chromatography, the GFP was cleaved by TEV protease and removed, and UptA was further purified by size-exclusion chromatography in a buffer containing 20 mM Tris-HCl (pH 8.0), 200 mM NaCl, 0.02% DDM. Before measurements, proteins were buffer-exchanged into 0.05% LDAO, 200 mM ammonium acetate at the desired pH using a centrifugal buffer exchange device (Micro Bio-Spin 6, Bio-Rad). Stock solutions of lipids were prepared from chloroform/methanol solution by evaporating aliquots of known volume in a SpeedVac. After drying, the lipid films were weighed and resuspended to a final concentration of 0.5 mM in 200 mM ammonium acetate and 0.05% LDAO by vertexing. Stock solutions of 0.5 mM amphomycin, aspartocin D, daptomycin, polymyxin B, polymyxin E, and bacitracin were made in the same buffer. All experiments were repeated three times from newly prepared stock solutions. Native mass spectrometry was performed on a Q-Exactive hybrid quadrupole-Orbitrap mass spectrometer (Thermo Fisher Scientific, Bremen, Germany), and lipid identification was performed on an Orbitrap Eclipse Tribrid mass spectrometer (Thermo). […]
Lipid extracts from B. Subtilis
B. subtilis strain 168 (ATCC 23857) was cultivated in […] LB media at 37 °C until OD600 nm 1.2 under aurobic conditions. Cells were harvested by centrifugation at 4,000 g for 20 minutes and resuspended in 20 mM Tris-HCl (pH 8.0), 150 mM NaCl. Cells were lysed by 5-6 passes through a microfluidizer at 20,000 psi. The lysates were clarified by centrifugation at 4,000 g for 10 minutes, and the totoal membrane was pelleted at 120,000 g for 1 h. The membrane pellet was ressupended […]

Sequence of UptA (O31823 whole entry): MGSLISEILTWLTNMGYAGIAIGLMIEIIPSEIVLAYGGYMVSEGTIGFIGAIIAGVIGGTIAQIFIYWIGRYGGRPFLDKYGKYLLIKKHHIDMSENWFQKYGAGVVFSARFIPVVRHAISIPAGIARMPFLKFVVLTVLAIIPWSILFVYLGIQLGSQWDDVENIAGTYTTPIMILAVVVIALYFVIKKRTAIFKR

SMILES: CC(C)=CCC/C(C)=C/CC/C(C)=C/CC/C(C)=C\CC/C(C)=C\CC/C(C)=C\CC/C(C)=C\CC/C(C)=C\CC/C(C)=C\CC/C(C)=C\CC/C(C)=C\COP(=O)(O)O [C55-P, undecaprenyl phosphate]
- reduction in C55-P binding, R118A/R119A (UptA R118A/R119A): 46%
- mean relative intensity of UptA in complex with phospholipid, comparison (in words) (UptA): more intensely than any of these diacylglycerol phospholipids
